Laboratory results taken from US20090099123A1, “Antisense microRNA and uses therefor” (priority 2007, published 2009).

Experiments:
miR-27a [1] = conditions: these and other cancer cells (refs 23, 42, 43); cited from earlier work
[2] = test system: prostate and pancreatic tumors and cells; conditions: cited from earlier work
RKO and SW480 cells [3] = test: FACS cell cycle analysis in colon cancer cells; type: cell-based
Description: Effects of β-CDODA-Me. SW480 (FIG. 12A) and RKO (FIG. 12B) cells were treated for 24 hr with DMSO(O), 2.5 and 5.0 μM β-CDODA-Me, and analyzed by FACS analysis. FIG. 12C: iSp modulates Sp protein expression and the cell cycle in SW480 and RKO cells. Cells were transfected with iSp, a combination of small inhibitory RNAs for Sp1, Sp3 and Sp4 or a non-specific oligonucleotide (iLamin), and analyzed for Sp proteins by Western blots (to confirm Sp knockdown) and FACS analysis. FIG. 12D: as-miR-27a modulates the cell cycle. SW480 and RKO cells were transfected with different amounts of as-miR-27a and, after 48 hr, analyzed by FACS. All experiments in FIGS. 12A-12D were repeated three times, and results are expressed as means±SE. Significant (p<0.05) changes compared to untreated (0) or iLamin-treated cells are indicated by asterisks.
RKO and SW480 cells were treated with either the vehicle (DMSO) or the compound for 24 hr or with as-miR27a. Cells were trypsinized, centrifuged, and resuspended in staining solution containing 50 μg/mL propidium iodide, 4 mmol/L sodium citrate and 30 units/mL RNase. After incubation at room temperature for 1 hr, cells were analysed on a FACS Vantage SE DiVa made by Becton Dickinson (BD), using BD FACSDiva Software V4.1.1. Propidium iodide (PI) fluorescence was collected through a 610SP bandpass filter, and list mode data were acquired on a minimum of 50,000 single cells defined by a dot plot of PI width vs. PI area. Data analysis was performed in BD FACSDiva Software V4.1.1 using PI width vs. PI area to exclude cell aggregates.

RKO and SW480 cells [4] = test: Induction of apoptosis / PARP cleavage in colon cancer cells (Western blot); type: cell-based
Description: (§1) FIG. 8A: Decreased cell survival in RKO cells. […] Cell survival is expressed as the percentage of β-CDODA-Me-treated cells remaining compared to DMSO (set at 100%).
(§2) RKO and SW480 colon cancer cells (2×10^4 per well) were plated in 12-well plates and allowed to attach for 24 hr. The medium was then changed to DMEM/Ham's F-12 medium containing 2.5% charcoal-stripped FBS, and either vehicle (DMSO) or different concentrations of the compound were added. Fresh medium and compounds were added every 48 hr, and cells were then trypsinized and counted after 48 and 96 hr using a Coulter Z1 cell counter. Transfection experiments in RKO and SW480 cells used 0.4 μg of reporter gene constructs and 0.04 μg of β-Gal and LipofectAMINE 2000 reagent (Invitrogen). Results of cell proliferation and transfection studies are expressed as means±S.E. for at least three replicate determinations for each treatment group. Western blots were determined with whole cell lysates essentially.

Myt-1, Wee-1 and cdc2 = test: Myt-1 and Wee-1 expression and cdc2 phosphorylation in colon cancer cells; type: cell-based
Description: (§3) FIGS. 13A-13D show the in vitro and in vivo effects of β-CDODA-Me on G2/M arrest and inhibition of tumor growth. Effects of β-CDODA-Me (FIG. 13A, 13B) and as-miR-27a (FIG. 13C) on Myt-1 and cdc2 phosphorylation. Colon cancer cells were treated with different amounts of β-CDODA-Me or as-miR-27a for the indicated times, and Myt-1 expression and cdc2 phosphorylation were determined by real time PCR or Western blots, respectively. […] FIGS. 13D-13F: β-CDODA-Me inhibit tumor growth (volume) (FIG. 13D), weight (FIG. 13E) and miR-27a expression (FIG. 13F) in a mouse xenograft model. Nude mice bearing RKO cells as xenografts were treated with corn oil (solvent control) or β-CDODA-Me (15 mg/kg/d), and tumor volumes, tumor weights, and miR-27a expression were determined.
(§4) cDNA was prepared from the RKO and SW480, cell lines using Reverse Transcription System (Promega). Each PCR was carried out in triplicate in a 20-μl volume using SYBR Green Mastermix (Applied Biosystems, Foster City, Calif.) for 15 min at 95° C. for initial denaturing, followed by 40 cycles of 95° C. for 30 s and 60° C. for 1 min in the Applied Biosystems 7900HT Fast Real-time PCR System. The ABI Dissociation Curves software was used following a brief thermal protocol (95° C. for 15 s and 60° C. for 15 s, followed by a slow ramp to 95° C.) to control for multiple species in each PCR amplification. Values for each gene were normalized to expression levels of TATA-binding protein. The primers used for real-time PCR were Myt-1 (sense 5′-CCTTCCAAGAGTAGCTCCAATTC-3′ (SEQ ID NO: 19); antisense 5′-GCC GGT AGC TCC CAT ATG G-3′) (SEQ ID NO: 20) and TATA-binding protein (sense 5′-TGC ACA GGA GCC AAG AGT GM-3′ (SEQ ID NO: 21); antisense 5′-CACATCACAGCTCCCCACCA-3′) (SEQ ID NO: 22). miRNA was extracted using the mirVana miRNA extraction kit (Applied Biosystems). Quantification of miRNA (RNU6B and miRNA-27a) was done using the Taqman miRNA kit (Applied Biosystems) according to the manufacturer's protocol with real-time PCR. U6 small nuclear RNA was used as a control to determine relative miRNA expression.

ZBTB10 = ZBTB10 by semi-quantitative RT-PCR in colon cancer cells; type: cell-based; conditions: RKO or SW480 cells, 18 hr
Text: (§5) ID NO: 8), ZBTB10 (sense [NT] ID NO: 9); antisense [NT] ID NO: 10), VEGF (sense [NT] ID NO: 11); antisense [NT] ID NO: 12), VEGFR1 (sense [NT] ID NO: 13); antisense [NT] ID NO: 14), Survivin (sense [NT] ID NO: 15); antisense [NT] ID NO: 16) and GAPDH (sense [NT] ID NO: 17); antisense [NT] ID NO: 18).

[5] = test system: RKO and SW480 colon cancer cells; test: Cell proliferation assay in colon cancer cells; type: cell-based
Description: as §1, §2

Sp1 gene promoter = test: Sp1 promoter construct luciferase activity in RKO cells; type: cell-based
Description: as §2

miR-27a [6] = test: miR-27a by quantitative real time PCR in colon cancer cells; type: cell-based; conditions: RKO and SW480 cells, 18 hr
Description: as §4

[7] = test system: Sp1, Sp3, Sp4, VEGF, VEGFR1 and survivin; test: Sp and Sp-dependent mRNA and proteins in colon cancer cells (semi-quantitative RT-PCR, Western blot); type: cell-based
Text: as §5

Sp3 gene promoter = test: Sp3 promoter construct luciferase activity in RKO cells; type: cell-based
Description: as §2

RKO cells as xenografts = test: Xenograft study in athymic nude mice; type: in vivo
Description: as §3
Mice were used in accordance with institutional guidelines when they were 8-12 wk old. To produce tumors, RKO cells were harvested from subconfluent cultures by a brief exposure to 0.25% trypsin and 0.02% EDTA and only suspensions consisting of single cells with >90% viability were used for the injections. A xenograft was established by s.c. injection of the cells (5×10^6) into the flanks of individual mice and, after 6 days, mice were randomized into two groups of 5 mice per group and dosed by oral gavage in corn oil or 15 mg/kg/d B-CDODA-Me 5 days a week for 22 days. The mice were weighed, and tumor size was measured every third day with calipers to permit calculation of tumor volumes: V=LW^2/2, where L and W were length and width, respectively. Final tumors weights were determined at the end of the dosing regimen. Tumor tissues and selected body organs (liver and kidney) were either stored in RNAlater solution (per manufacture's recommendations) for later microRNA analysis, snap frozen and stored at −80° C., or fixed in 10% formalin and embedded in paraffin.

[8] = 15 mg/kg/d oral gavage, 5 days a week for 22 days, vs corn oil

Cc1c(Cl)cccc1Nc1ccccc1C(=O)O [tolfenamic acid]
levels of miR-27a RNA (miR-27a [1]): decrease | growth of prostate and pancreatic tumors and cells [2]: inhibit growth

COC(=O)[C@@]1(C)CC[C@]2(C)CC[C@]3(C)C(=CC(=O)[C@@H]4[C@@]5(C)C=C(C#N)C(=O)C(C)(C)[C@@H]5CC[C@]43C)[C@@H]2C1 [β-CDODA-Me, methyl-2-cyano-3,11-dioxo-18β-olean-1,12-dien-30-oate]
cell cycle arrest (RKO and SW480 cells [3]): induced a G2/M arrest | percentage of cells in S phase (RKO and SW480 cells [3]; 24 hr, 2.5 and 5.0 μM respectively): increased and then decreased | cells in G2/M (RKO and SW480 cells [3]; 24 hr, 2.5 and 5.0 μM, vs DMSO): increase | percentage of cells in G0/G1 (RKO and SW480 cells [3]; 24 hr, 2.5 and 5.0 μM, vs DMSO): concentration-dependent decrease | apoptosis (RKO and SW480 cells [4]; RKO and SW480 cells): induced apoptosis | caspase-dependent PARP cleavage (RKO and SW480 cells [4]; colon cancer cells (β-CDODA-Me: RKO; ZBTB10: SW480 and RKO)): induced | cdc2 phosphorylation (Myt-1, Wee-1 and cdc2; RKO and SW480 cells, Western blot): time-dependent induction | Myt-1 mRNA expression (Myt-1, Wee-1 and cdc2; RKO and SW480 cells, real time PCR): induced | Wee-1 expression (Myt-1, Wee-1 and cdc2; SW480 or RKO cells): did not affect | levels of miR-27a RNA (miR-27a [1]): decrease | ZBTB10 levels (ZBTB10): induced | proliferation ([5]; 0.5-5 μM, 4 days): decreased proliferation | proliferation and apoptosis responses after cotreatment with T007 ([5]; T007 10 μM): not affected | luciferase activity, Sp1 promoter constructs (pSp1For4, pSp1For2, pSp1For1) (Sp1 gene promoter): decreased luciferase activity | miR-27a (miR-27a [6]): decreased | Sp1, Sp3 and Sp4 mRNA levels ([7]; 24 hr, semi-quantitative RT-PCR): decreased expression | expression of Sp-dependent proteins survivin, VEGFR1 (Flt-1) and VEGF ([7]; Western blot): decreased expression | luciferase activity, Sp3 promoter constructs (pSp3For5, pSp3For2) (Sp3 gene promoter): decreased luciferase activity | body or organ weight loss associated with toxic side effects (RKO cells as xenografts; 15 mg/kg/d): not accompanied by any body or organ weight loss | miR-27a expression in tumors (RKO cells as xenografts; [8]): inhibited | tumor growth (volume) (RKO cells as xenografts; [8]): inhibited | tumor weight (RKO cells as xenografts; [8]): inhibited
